Results: paper PMC6445550 (Analytical biochemistry, 2014)

Molecular target: T1, Erf2 (Saccharomyces cerevisiae, UniProt Q06551)
T1 sequence (Q06551 1-359): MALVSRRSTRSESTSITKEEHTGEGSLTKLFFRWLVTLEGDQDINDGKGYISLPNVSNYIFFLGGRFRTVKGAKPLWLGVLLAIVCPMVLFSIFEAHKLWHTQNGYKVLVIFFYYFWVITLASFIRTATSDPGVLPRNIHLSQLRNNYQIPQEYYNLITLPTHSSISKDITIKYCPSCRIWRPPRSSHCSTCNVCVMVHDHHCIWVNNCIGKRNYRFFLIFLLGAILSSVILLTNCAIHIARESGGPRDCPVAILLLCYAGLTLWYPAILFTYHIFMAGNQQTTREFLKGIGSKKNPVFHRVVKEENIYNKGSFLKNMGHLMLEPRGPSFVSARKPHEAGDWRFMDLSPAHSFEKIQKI
Assay: fluorescence coupled autopalmitoylation assay with purified complex
Type: biochemical

SMILES: CCCCCCCCCCCCCCC(Br)C(=O)O (stereo not shown) [2-BP, 2-bromopalmitate]
- IC50: ~100 µM
